Data taken from PubChem BioAssay (NCI).
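Grown in 96-well plates, cells were treated for 48 hours with each compound at five concentrations. Insufficient inhibition: endpoint recorded as highest concentration tested. GI50: concentration for 50% inhibition of growth. TGI is the concentration that stops growth completely.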

Columns and labels:
Assay in all cases: NCI-60 cell line screen, 48 h
A549 NSCLC = tested on: A549 NSCLC
ACHN renal = tested on: ACHN renal
RPMI-8226 leukemia = tested on: RPMI-8226 leukemia
LOX IMVI melanoma = tested on: LOX IMVI melanoma
PC-3 prostate = tested on: PC-3 prostate
OVCAR-8 ovarian = tested on: OVCAR-8 ovarian
RXF 393 renal = tested on: RXF 393 renal
SF-295 CNS = tested on: SF-295 CNS
MDA-MB-231 breast = tested on: MDA-MB-231 breast
SNB-75 CNS = tested on: SNB-75 CNS
CAKI-1 renal = tested on: CAKI-1 renal
U251 CNS = tested on: U251 CNS
M14 melanoma = tested on: M14 melanoma
HOP-92 NSCLC = tested on: HOP-92 NSCLC
SW-620 colon = tested on: SW-620 colon
SK-MEL-5 melanoma = tested on: SK-MEL-5 melanoma
EKVX NSCLC = tested on: EKVX NSCLC
NCI/ADR-RES ovarian = tested on: NCI/ADR-RES ovarian
UO-31 renal = tested on: UO-31 renal
MDA-MB-435 = tested on: MDA-MB-435
NCI-H23 lung = tested on: NCI-H23 lung
UACC-257 melanoma = tested on: UACC-257 melanoma
BT-549 breast = tested on: BT-549 breast
NCI-H460 lung = tested on: NCI-H460 lung
MOLT-4 leukemia = tested on: MOLT-4 leukemia
SK-OV-3 ovarian = tested on: SK-OV-3 ovarian
IGROV1 ovarian = tested on: IGROV1 ovarian
MALME-3M melanoma = tested on: MALME-3M melanoma
HCT-15 colon = tested on: HCT-15 colon
SN12C renal = tested on: SN12C renal
HOP-62 NSCLC = tested on: HOP-62 NSCLC
COLO 205 colon = tested on: COLO 205 colon
HT29 colon = tested on: HT29 colon
TK-10 renal = tested on: TK-10 renal
SNB-19 CNS = tested on: SNB-19 CNS
SR leukemia = tested on: SR leukemia
KM12 colon = tested on: KM12 colon
UACC-62 melanoma = tested on: UACC-62 melanoma
SF-268 CNS = tested on: SF-268 CNS
HCT-116 colon = tested on: HCT-116 colon
SK-MEL-2 melanoma = tested on: SK-MEL-2 melanoma
HL-60(TB) leukemia = tested on: HL-60(TB) leukemia
OVCAR-3 ovarian = tested on: OVCAR-3 ovarian
786-0 renal = tested on: 786-0 renal
K-562 leukemia = tested on: K-562 leukemia
HCC-2998 colon = tested on: HCC-2998 colon
DU-145 prostate = tested on: DU-145 prostate
NCI-H226 lung = tested on: NCI-H226 lung
CCRF-CEM leukemia = tested on: CCRF-CEM leukemia
MCF7 breast = tested on: MCF7 breast
SK-MEL-28 melanoma = tested on: SK-MEL-28 melanoma
OVCAR-4 ovarian = tested on: OVCAR-4 ovarian
T-47D breast = tested on: T-47D breast
OVCAR-5 ovarian = tested on: OVCAR-5 ovarian
A498 renal = tested on: A498 renal
NCI-H522 lung = tested on: NCI-H522 lung
SF-539 CNS = tested on: SF-539 CNS

## CN(C)CCNC(=O)c1ccc2c(c1)oc1cc3ccccc3c(=O)n12
A549 NSCLC
  GI50: 12.3 µM
  TGI: 27.5 µM
ACHN renal
  GI50: 12.5 µM
  TGI: 26 µM
RPMI-8226 leukemia
  GI50: 31 µM
  TGI: > 100 µM
LOX IMVI melanoma
  GI50: 1.91 µM
  TGI: 11 µM
PC-3 prostate
  GI50: 28.7 µM
  TGI: > 100 µM
OVCAR-8 ovarian
  GI50: 19.4 µM
  TGI: 42.5 µM
RXF 393 renal
  GI50: 19.6 µM
  TGI: 36.6 µM
SF-295 CNS
  GI50: 14.2 µM
  TGI: 32.5 µM
MDA-MB-231 breast
  GI50: 13 µM
  TGI: 27.9 µM
SNB-75 CNS
  GI50: 11.1 µM
  TGI: 27.4 µM
CAKI-1 renal
  GI50: 10.8 µM
  TGI: 25.4 µM
U251 CNS
  GI50: 15.8 µM
  TGI: 30.6 µM
M14 melanoma
  GI50: 18.6 µM
  TGI: 32.6 µM
HOP-92 NSCLC
  GI50: 9.78 µM
  TGI: 38.4 µM
SW-620 colon
  GI50: 15.5 µM
  TGI: 31.7 µM
SK-MEL-5 melanoma
  GI50: 23.3 µM
  TGI: 39.9 µM
EKVX NSCLC
  GI50: 18.1 µM
  TGI: 36.6 µM
NCI/ADR-RES ovarian
  GI50: 18.6 µM
  TGI: 34.5 µM
UO-31 renal
  GI50: 15.1 µM
  TGI: 30.8 µM
MDA-MB-435
  GI50: 15.1 µM
  TGI: 32.7 µM
NCI-H23 lung
  GI50: 31.8 µM
  TGI: > 100 µM
UACC-257 melanoma
  GI50: 21.7 µM
  TGI: 37.5 µM
BT-549 breast
  GI50: 25.9 µM
  TGI: 45.8 µM
NCI-H460 lung
  GI50: 7.5 µM
  TGI: 25.7 µM
MOLT-4 leukemia
  GI50: 97.7 µM
  TGI: > 100 µM
SK-OV-3 ovarian
  GI50: 13.8 µM
  TGI: 30.9 µM
IGROV1 ovarian
  GI50: 10.6 µM
  TGI: 26.4 µM
MALME-3M melanoma
  GI50: 23.4 µM
  TGI: 43.7 µM
HCT-15 colon
  GI50: 12.8 µM
  TGI: 31.4 µM
SN12C renal
  GI50: 15.4 µM
  TGI: 30.6 µM
HOP-62 NSCLC
  GI50: 16 µM
  TGI: 30.8 µM
COLO 205 colon
  GI50: 15.6 µM
  TGI: 35.6 µM
HT29 colon
  GI50: 18.1 µM
  TGI: 40.4 µM
TK-10 renal
  GI50: 12.9 µM
  TGI: 31.4 µM
SNB-19 CNS
  GI50: 25.9 µM
  TGI: 48.7 µM
SR leukemia
  GI50: 13.4 µM
  TGI: > 100 µM
KM12 colon
  GI50: 17 µM
  TGI: 45.3 µM
UACC-62 melanoma
  GI50: 17.4 µM
  TGI: 33.8 µM
SF-268 CNS
  GI50: 15.4 µM
  TGI: 31.7 µM
HCT-116 colon
  GI50: 16 µM
  TGI: 29.4 µM
SK-MEL-2 melanoma
  GI50: 28.7 µM
  TGI: 50.5 µM
HL-60(TB) leukemia
  GI50: 23.8 µM
  TGI: 87.9 µM
OVCAR-3 ovarian
  GI50: 13.2 µM
  TGI: 30.4 µM
786-0 renal
  GI50: 18.2 µM
  TGI: 33.1 µM
K-562 leukemia
  GI50: 35.4 µM
  TGI: > 100 µM

## COc1ccc(/C=C\c2cc(OC)c(OC)c(OC)c2)cc1NC(=O)/C=C/c1ccc(OC)c(OC)c1
A549 NSCLC
  GI50: 4.89 µM
  TGI: > 100 µM
HCC-2998 colon
  GI50: 2.72 µM
  TGI: > 100 µM
ACHN renal
  GI50: 5.25 µM
  TGI: > 100 µM
DU-145 prostate
  GI50: 4.93 µM
  TGI: > 100 µM
RPMI-8226 leukemia
  GI50: 3.95 µM
  TGI: > 100 µM
LOX IMVI melanoma
  GI50: 7.41 µM
  TGI: > 100 µM
PC-3 prostate
  GI50: 3.9 µM
  TGI: > 100 µM
OVCAR-8 ovarian
  GI50: 5.1 µM
  TGI: > 100 µM
MDA-MB-231 breast
  GI50: 25.5 µM
  TGI: > 100 µM
NCI-H226 lung
  GI50: 4.03 µM
  TGI: > 100 µM
CAKI-1 renal
  GI50: 3.55 µM
  TGI: > 100 µM
U251 CNS
  GI50: 3.53 µM
  TGI: > 100 µM
M14 melanoma
  GI50: 4.3 µM
  TGI: > 100 µM
CCRF-CEM leukemia
  GI50: 4.19 µM
  TGI: > 100 µM
HOP-92 NSCLC
  GI50: > 100 µM
  TGI: > 100 µM
SW-620 colon
  GI50: 4.88 µM
  TGI: > 100 µM
MCF7 breast
  GI50: 3.22 µM
  TGI: > 100 µM
SK-MEL-28 melanoma
  GI50: 3.39 µM
  TGI: > 100 µM
SK-MEL-5 melanoma
  GI50: 2.89 µM
  TGI: > 100 µM
EKVX NSCLC
  GI50: > 100 µM
  TGI: > 100 µM
OVCAR-4 ovarian
  GI50: 8.01 µM
  TGI: > 100 µM
NCI/ADR-RES ovarian
  GI50: 0.949 µM
  TGI: > 100 µM
UO-31 renal
  GI50: 6.21 µM
  TGI: > 100 µM
MDA-MB-435
  GI50: 0.348 µM
  TGI: 1.71 µM
NCI-H23 lung
  GI50: 16.5 µM
  TGI: > 100 µM
UACC-257 melanoma
  GI50: > 100 µM
  TGI: > 100 µM
BT-549 breast
  GI50: 7.7 µM
  TGI: > 100 µM
NCI-H460 lung
  GI50: 3.46 µM
  TGI: > 100 µM
MOLT-4 leukemia
  GI50: 6.66 µM
  TGI: > 100 µM
SK-OV-3 ovarian
  GI50: 0.0736 µM
  TGI: 0.676 µM
IGROV1 ovarian
  GI50: 18.8 µM
  TGI: > 100 µM
MALME-3M melanoma
  GI50: > 100 µM
  TGI: > 100 µM
T-47D breast
  GI50: 5.98 µM
  TGI: > 100 µM
HCT-15 colon
  GI50: 4.41 µM
  TGI: > 100 µM
SN12C renal
  GI50: 5.43 µM
  TGI: > 100 µM
HOP-62 NSCLC
  GI50: 5.42 µM
  TGI: > 100 µM
COLO 205 colon
  GI50: 2.05 µM
  TGI: 10.9 µM
OVCAR-5 ovarian
  GI50: 7.69 µM
  TGI: > 100 µM
A498 renal
  GI50: 0.184 µM
  TGI: > 100 µM
HT29 colon
  GI50: 3.39 µM
  TGI: > 100 µM
NCI-H522 lung
  GI50: 2.61 µM
  TGI: > 100 µM
TK-10 renal
  GI50: > 100 µM
  TGI: > 100 µM
SNB-19 CNS
  GI50: 4.15 µM
  TGI: > 100 µM
SF-539 CNS
  GI50: 3.1 µM
  TGI: 52.6 µM
SR leukemia
  GI50: 0.412 µM
  TGI: > 100 µM
KM12 colon
  GI50: 3.91 µM
  TGI: > 100 µM
UACC-62 melanoma
  GI50: 3.67 µM
  TGI: > 100 µM
SF-268 CNS
  GI50: 7.29 µM
  TGI: > 100 µM
HCT-116 colon
  GI50: 4.35 µM
  TGI: > 100 µM
SK-MEL-2 melanoma
  GI50: 5.51 µM
  TGI: > 100 µM
HL-60(TB) leukemia
  GI50: 2.54 µM
  TGI: 8.85 µM
OVCAR-3 ovarian
  GI50: 6.41 µM
  TGI: > 100 µM
786-0 renal
  GI50: 4.79 µM
  TGI: > 100 µM
